Reference: patent US8030293B2, “Methods of optimizing drug therapeutic efficacy for treatment of immune-mediated gastrointestinal disorders” (Hopital-Sainte-Justine, priority 1998, dated 2011)
Read-outs that look alike come from different tables or passages of the source. Marks after values point to notes of the source that are not given here. Values belong to the compound of their own block, whether it stands above or below them.

Legend:
[1] = erythrocytes
Description: The 93 patients were pediatric patients, with 80 diagnosed as having CD, 8 diagnosed as having UC, and 5 diagnosed as having indeterminate colitis (CD or UC). All but 7 patients were given AZA. The dosages were converted to 6-MP equivalents using a factor of 2.07 as described in Example I. For some patients, two or more samples were obtained and analyzed. Response to 6-MP was defined by clinical remission (HBI<5, closed fistula) without corticosteroids. Disease activity and physical exam were ascertained at each clinic visit at which 6-MP metabolite levels were determined (clinical evaluation point). Hematological, pancreatic and hepatic laboratory parameters were evaluated simultaneously Erythrocyte 6-TG and 6-MMP concentrations (pmol/8×10^8 RBC) were measured by HPLC (Cuffari et al., supra, 1996a).
The number of samples corresponds to the number of different samples obtained from the 93 patients.

[2] = 6-TG levels by TPMT genotype in IBD patients (Example IV); assay type: in vivo, human; conditions: for mean 6-TG: in pmol/8×10^8 RBC
Description: The genotype of TPMT was determined in IBD patients that were responders and non responders. Genotyping of TPMT was measured essentially as described previously (Baccichet et al., Leuk. Res. 21:817-823 (1997); Zietkiewicz et al., Gene 205:161-171 (1997)). […] All heterozygote patients were responders to 6-MP.

[3] = 6-MP metabolite levels by gender and age in pediatric IBD patients (Example III); assay type: in vivo, human; conditions: for 6-TG level / 6-MMP level: TPMT wild type
Description: These patients were wild type for TPMT. Patients were assessed based on gender and age as it relates to puberty. Puberty is established at 12 years of age in girls and 14 years of age in boys.

[4] = Erythrocyte 6-MP metabolite levels by reverse phase HPLC in IBD patients on 6-MP drug (Example I); conditions: erythrocytes
Description: Briefly, blood was sampled (n=89) prior to daily administration of 6-MP in 55 IBD patients (CD n=51, UC n=4) receiving 1-1.5 mg/kg/day over at least a 4 month period (≧4 mo.). When AZA was administered, a conversion factor of 2.07 was used to convert to the equivalent 6-MP dose. Twice as much AZA is administered relative to 6-MP to have an equivalent dose of 6-MP.
Erythrocyte 6-TG, 6-MMP and 6-MP thiobases were measured (pmol/8×10^8 RBC) using reverse phase HPLC. Briefly, blood samples were collected in EDTA (ethylene diamine tetraacetic acid) as anticoagulant. Cells were centrifuged and washed three times with an equal volume of 0.9% saline. Washed packed cells were stored at −70° C. until analysis was performed.
For acid hydrolysis, 500 μl deionized H2O, 50 μl thawed red blood cells, 40 μl of the appropriate standard or control, 500 μl 3.0 NH2SO4, and 300 μl 10 mM dithiothreitol (DTT) was added to an 8 ml glass screw cap tube. The capped tubes were placed in a heating block preheated to 100° C. and hydrolyzed. For 6-MMP, hydrolysis was carried out for 5 hours. For 6-MP and 6-TG, hydrolysis was carried out for 1 hour. After the incubation, tubes were cooled in a room temperature water bath. To tubes hydrolyzed for 5 hours (6-MMP), 400 μl 3.4 N NaOH and 1.0 ml 2 M Tris buffer, pH 9.0 was added. To tubes hydrolyzed for 1 hour (6-MP/6-TG), 450 μl 3.4 N NaOH and 500 μl 2M Tris base was added. A volume of 4 ml 0.03% phenylmercuric chloride in methylene chloride was added to each tube. The tubes were capped and lightly agitated on a bi-directional rotator (15 min for 6-MMP and 30 min for 6-MP/6-TG). The contents were transferred to a 15 ml polypropylene centrifuge tube and centrifuged at 3500 rpm for 3 min at 10° C. The aqueous phase (top layer) was discarded, and 3.0 ml of the organic phase (bottom layer) was transferred to a clean 15 ml polypropylene centrifuge tube. The analytes in the organic phase were back extracted by adding 225 μl 0.1 N HCl and lightly mixing on an orbital rotator for 5 min. Following vortexing for 30 seconds, the tubes were centrifuged at 3500 rpm for 3 min at 10° C.
For 6-MMP analysis, 50 μl analyte was analyzed on a C18 reverse phase column with the mobile phase containing 1 mM DTT, 2.078% triethylamine and 4% methanol, adjusted to pH 3.2 with concentrated H3PO4. For 6-MP and 6-TG analysis, 100 μl analyte was analyzed on a C18 reverse phase column using 0.1 M H3PO4 and 1 mM DTT in H2O as the mobile phase.
Clinical remission was defined as a Harvey Bradshaw Index <5 in those patients off corticosteroids or weaned to a level of prednisone ≦0.4 mg/kg/od (administered every other day). Treatment failures were defined as non-responders (HBI>5 or steroid dependence) or cessation of 6-MP due to side effects.

[5] = human, in vivo
Description: All but 7 patients were given AZA.
Toxicity was measured essentially as described previously (Cuffari et al., supra; 1996a).

[6] = Responsiveness to 6-MP drug therapy by TPMT genotype in IBD patients (Example IV); assay type: in vivo, human
Description: The genotype of TPMT was determined in IBD patients that were responders and non responders. Genotyping of TPMT was measured essentially as described previously (Baccichet et al., Leuk. Res. 21:817-823 (1997); Zietkiewicz et al., Gene 205:161-171 (1997)).

median 6-TG ([1]; Relapse, n=72 samples): 197 pmol/8×10^8 RBC | median 6-TG ([1]; Remission, n=106 samples, p<0.0001): 309* pmol/8×10^8 RBC | mean 6-TG ([2]; TPMT Heterozygote patients, p less than 0.0001): 589* | mean 6-TG ([2]; TPMT Normal patients): 247 | 6-TG levels of TPMT heterozygotes ([2]; all 8 heterozygotes): > 230 pmol/8×10^8 RBC | 6-TG level ([3]; Boys (0-14 y), 51 observed): 235.0 pmol per 8 × 10^8 RBC | 6-TG level ([3]; Boys (>14 y), 104 observed): 222.5 pmol per 8 × 10^8 RBC | 6-TG level ([3]; Girls (0-12 y), 39 observed): 182.2 pmol per 8 × 10^8 RBC | 6-TG level ([3]; Girls (>12 y), 116 observed): 217.2 pmol per 8 × 10^8 RBC | median 6-TG ([4]; Non-responders, n=31, p<0.001): 184* pmol per 8×10^8 RBC | median 6-TG ([4]; Responders, n=58 samples, 6-MP 1-1.5 mg/kg/day ≥4 mo.): 295 pmol per 8×10^8 RBC
SMILES: Nc1nc2nc[nH]c2c(=S)[nH]1 [6-TG, 6-thioguanine]
median 6-TG ([4]; Hematologic toxicity group, n=6, p<0.03): 414+ pmol per 8×10^8 RBC | median 6-TG ([4]; Hepatic toxicity group, n=7): 258 pmol per 8×10^8 RBC | median 6-TG ([4]; Pancreatic toxicity group, n=6): 211 pmol per 8×10^8 RBC

Median 6-MMP ([1]; Relapse, n=72 samples): 1602 pmol/8×10^8 RBC | Median 6-MMP ([1]; Remission, n=106 samples): 2600 pmol/8×10^8 RBC | Ratio 6-MMP/6-TG ([3]; Boys (0-14 y)): 17.24 | 6-MMP level ([3]; Boys (0-14 y), 51 observed): 3681.6 pmol per 8 × 10^8 RBC | 6-MMP level ([3]; Boys (>14 y), 104 observed, p<0.001): 1662.3* pmol per 8 × 10^8 RBC | Ratio 6-MMP/6-TG ([3]; Boys (>14 y), p<0.001): 6.78* | Ratio 6-MMP/6-TG ([3]; Girls (0-12 y)): 18.52 | 6-MMP level ([3]; Girls (0-12 y), 39 observed): 3447.0 pmol per 8 × 10^8 RBC | Ratio 6-MMP/6-TG ([3]; Girls (>12 y)): 12.55 | 6-MMP level ([3]; Girls (>12 y), 116 observed): 3304.5 pmol per 8 × 10^8 RBC
SMILES: CSc1ncnc2nc[nH]c12 [6-MMP, 6-methyl-mercaptopurine]
6-MMP level associated with hepatotoxicity [5]: greater than 7000 pmol 6-MMP/8×10^8

SMILES: Sc1ncnc2nc[nH]c12 [6-MP, 6-Mercaptopurine]
response of TPMT heterozygotes to 6-MP ([6]; 8 of 93 patients heterozygotes): All 8 heterozygotes responded | Non. responder ([6]; TPMT Heterozygote IBD patients): 0% | Responder ([6]; TPMT Heterozygote IBD patients): 100% | Non. responder ([6]; TPMT Normal IBD patients): 45% | Responder ([6]; TPMT Normal IBD patients): 55%
